{
  "source": "patent US20240343762A1",
  "about": "“USE OF PROTON PUMP MODULATOR IN PREPARING REAGENT” (SHANGHAI QUIETD BIOTECHNOLOGY CO. LTD., priority 2021, published 2024)",
  "key": {"[1]": {"molecular_target": "T1, murine ATP6V1B2 full-length protein (Mus musculus, UniProt P62814)", "T1 construct": "expressed in transfected cells; host or cells: 293 cells", "T1 sequence (P62814 whole entry, the tested form may be a part)": "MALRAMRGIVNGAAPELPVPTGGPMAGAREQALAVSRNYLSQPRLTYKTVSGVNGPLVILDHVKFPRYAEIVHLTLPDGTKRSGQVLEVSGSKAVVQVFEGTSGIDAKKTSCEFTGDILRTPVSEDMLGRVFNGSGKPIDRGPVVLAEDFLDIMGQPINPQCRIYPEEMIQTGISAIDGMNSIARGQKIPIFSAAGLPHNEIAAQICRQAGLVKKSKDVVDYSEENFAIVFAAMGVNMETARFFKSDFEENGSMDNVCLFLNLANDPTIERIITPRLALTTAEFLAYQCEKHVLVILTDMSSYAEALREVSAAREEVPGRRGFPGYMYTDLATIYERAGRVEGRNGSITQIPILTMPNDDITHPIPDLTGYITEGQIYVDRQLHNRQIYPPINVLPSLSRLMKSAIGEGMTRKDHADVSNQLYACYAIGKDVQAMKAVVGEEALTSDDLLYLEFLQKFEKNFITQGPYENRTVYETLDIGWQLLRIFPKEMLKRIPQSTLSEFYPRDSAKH", "test": "Co-immunoprecipitation of EGFP-tagged QD202 with Myc-tagged ATP6V1B2 full-length protein in 293 cells", "type": "binding", "source_text": "Expression plasmids including murine ATP6V1B2 full-length sequence, 1-286aa truncated sequence or 1-172aa truncated sequence with a Myc tag are respectively constructed; the amino acid sequence of the murine ATP6V1B2 full-length sequence was as set forth in SEQ ID NO. 8, the amino acid sequence of the murine ATP6V1B21-286aa was as set forth in SEQ ID NO. 10; the amino acid sequence of the murine ATP6V1B21-172aa as set forth in as SEQ ID NO. 11; and these plasmids were respectively called as an ATP6V1B2 full-length expression plasmid, an ATP6V1B21-286aa expression plasmid and an ATP6V1B21-172aa expression plasmid. Meanwhile, a QD202 expression plasmid with an EGFP tag was constructed. […]\nThen a Protein G agarose bead was added to be bound to the Myc antibody, so as to precipitate the ATP6V1B2 full-length protein, the 1-286aa truncated sequence or the 1-172aa truncated sequence, and proteins which were bound to one another, and finally the proteins subjected to co-immunoprecipitation was detected by virtue of an immunoblotting method."}, "ATP6V1B2": {"molecular_target": "ATP6V1B2 (Mus musculus, UniProt P62814)", "sequence (P62814 whole entry)": "as the sequence (P62814 whole entry, the tested form may be a part) above", "test": "Co-immunoprecipitation in HEK 293 cells transfected with murine Atp6V1b2 expression plasmid with myc tag", "type": "binding", "design": "expressed in transfected cells; host or cells: HEK 293", "conditions": "HEK 293 cell lysate, biotin antibody, immunoblotting", "description": "(6) A murine Atp6V1b2 expression plasmid with a myc tag at the 3′ end was constructed; the plasmid was transfected in HEK 293 cells; the cells were collected after 2 days; and cell protein was extracted. The biotin antibody and protein G agarose beads were added into a cell lysis solution for co-immunoprecipitation^[1], and the protein was eluted by the protein loading buffer solution.\n(7) SDS-PAGE protein electrophoresis gel was prepared, the concentration of lower-layer separation gel was 10%, and the concentration of upper-layer concentrated gel was 4%; the sample was added into a loading hole; and the protein was detected by an immunoblotting method, with the result shown in FIG. 6b."}, "[2]": {"test_system": "hippocampal CA1 pyramidal neurons", "test": "Whole-cell patch-clamp recording of spontaneous excitatory postsynaptic current (sEPSC) in hippocampus brain slice", "type": "cell-based, mouse", "conditions": "sEPSC at -70 mV, perfusion for 5 min; 5 μM in Embodiment 3", "description": "0.1-0.15 ml of 20% ethyl carbamate was injected into the abdominal cavity of a C57 mouse of 2 to 3 months old for anesthesia; a head was quickly cut, and brain tissues were stripped and put into artificial cerebrospinal fluid (ACSF) ice-water mixed liquid into which mixed gas (95% O2 and 5% CO2) was introduced in advance, and stood for 2 min; the ACSF included the following components: […] of NaCl, […] of KCl, 0.12 mM of NaH2PO4, 0.25 mM of CaCl2), 0.12 mM of MgCl2, 25 mM of NaHCO3 and 11 mM of glucose. A hippocampus coronal brain slice of 350 μm was cut by a vibration slicer. The hippocampus coronal brain slice was placed into the ACSF at room temperature for more than 30 min for recovery, and then the brain slice was put into a record slot; continuous perfusing was performed at a speed of 2 to 2.5 ml/min by the ACSF into which the mixed gas was introduced; blind-binding sealing was performed on hippocampus CA1 pyramidal neuron under an Olympic BX51 upright microscope; whole-cell patch-clamp was performed by an Axon700B amplifier and a 1550B digital-to-analog converter; spontaneous excitatory postsynaptic current (sEPSC) of the pyramidal neuron was recorded by a voltage clamp under the clamp voltage of −70 mV; after recording for 5 min, synthetic polypeptides such as 5 μM QD202 or QD202 N′-1, C′-1 and C′-2 for 5 min; and then perfusing and flushing were performed for 10 min by the ACSF. The recorded data was analyzed by Minianalysis software. […]"}, "[3]": {"test_system": "APP/PS1 transgenic AD mice", "test": "Morris water maze test in APP/PS1 transgenic AD mice", "type": "in vivo, mouse", "conditions": "continuously for 1 week, mice of 10 months old", "description": "Morris water maze referred to the test solutions recorded in Qing-Feng Wu et al., Fibroblast growth factor 13 is a microtubule-stabilizing protein modulating neuronal polarization and migration. Cell. 149, 1549-1564 (2012). The test was carried out in a circular pool filled with water (120 cm in diameter, 30 cm in depth, titanium dioxide was added to make opaque, kept temperature at 21±1° C.) in a room with a fixed environment. The test was divided into an adaptation period (1 day), a training period (5-6 days) and a testing period (1 day). Adaptation period: the platform was placed 0.5 cm above the water surface, and the mice were guided to the platform. Training day: the platform was placed 0.5 cm underwater, and the mice were trained to find the platform. […] Training were performed 4 times a day, 4 times a day (between 8:00 a.m. to 4:00 p.m.), the mice were dropped from different water points each time, each training was performed at interval of at least 30 min, a total of 6 days, and the order of water points was different every day. Test Day: test was performed 24 h after the end of the training day. […] The footage was analyzed with Etho Vision XT 14 software, recording parameters including the escape latency of entering the target quadrant, the number of platform crossings, and the dwell time in the target quadrant. […]"}},
  "data": [
    {"substance": "QD202: polypeptide synthesized according to the amino acid sequence as set forth in SEQ ID NO. 1 (YGRKKRRQRRRSPVDVVCS; QD202)", "values": [
      {"measurement": "binding to ATP6V1B2 full-length protein by co-immunoprecipitation", "setting": "[1]; 293 cells, Myc antibody, immunoblotting", "value": "only the full-length ATP6V1B2 protein can be combined"},
      {"measurement": "binding site of ATP6V1B2 and QD202", "setting": "[1]; concluded from full-length versus truncated sequences", "value": "288th amino acid to 512th amino acid"},
      {"measurement": "binding to ATP6V1B2 protein by co-immunoprecipitation", "setting": "ATP6V1B2", "value": "specific binding between the QD202 and the ATP6V1B2 protein can be found"},
      {"measurement": "excitatory postsynaptic current amplitude", "setting": "[2]", "value": "no influence"},
      {"measurement": "release frequency of excitatory postsynaptic current", "setting": "[2]", "value": "increasing the release frequency"},
      {"measurement": "spontaneous excitatory synaptic transmitter release of hippocampal CA1 neurons", "setting": "[2]", "value": "can increase the spontaneous excitatory synaptic transmitter release"},
      {"measurement": "learning and cognitive functions in water maze behavior", "setting": "[3]; intragastric, 6.25 mg/kg", "value": "obvious improvement of learning and cognitive functions"},
      {"measurement": "learning and cognitive functions in water maze behavior", "setting": "[3]; intravenous, 1.25 mg/kg", "value": "obvious improvement on learning and cognitive functions"}
    ]}
  ]
}
